{"source": "patent EP0383591B1", "about": "“Use of 5-methyl-1-phenyl-2-(1H)-pyridone in the prevention of fibrotic lesions” (Yamauchi, Shitotomo, priority 1989, dated 1990)", "key": {"[1]": {"test_system": "fibrosis (interstitial hyperplasia)", "assay": "Histopathological examination of the lungs of rats for fibrosis after 5MP2P in the diet", "type": "in vivo", "protocol": "The results of a histopathological examination of the lungs of rats for fibrosis (interstitial hyperplasia) after receiving 300 mg/kg body of 5MP2P in the diet for three months are summarized in Table 2. The individual microscopic readings of the lung are also shown in Table 2, a score schedule of 0, 1, 2 and 3 reflects the degree of fibrosis.\nThe data in […] reveal a statistically significant reduction in amount of fibrosis in rats receiving 5MP2P as compared to placebo control rats (Group 1). The mean score for the controls (Group 1) was 1.63 + 0.23, and for Group IV (5MP2P, 300 mg/kg body weight daily) was 0.95 + 0.23.\nStudent's T value was 2.43, with P less than 0.02 (highly significant statistically)."}, "[2]": {"test_system": "Asbestos-Induced Pulmonary Interstitial Fibrosis", "assay": "Effect of oral 5MP2P upon asbestos-induced pulmonary interstitial fibrosis in hamsters", "type": "in vivo", "set-up": "key to Pulmonary Fibrosis Scores Light Microscope (individual animal) / Pulmonary Fibrosis Scores Electron Microscope (individual animal): 0 = normal tissue; 1 = minimal; 2 = moderate; 3 = severe", "from_the_text": "In hamsters, pulmonary fibrosis induced with crysotile asbestos was removed following oral 5MP2P (cf. Table 4).\nThe novel role of 5MP2P in the therapeutic repair of fibrotic lung tissue featuring removal of fibrotic lesions, and concomitant regeneration of normal lung tissue has been observed in experimental asbestosis by histopathological examination of lung tissue specimens under the light microscope, and electron microscopy (Table 4).\nThis was subsequently confirmed by ashing of lung specimens in a laboratory oven, and then determining the asbestos content."}, "[3]": {"test_system": "Pulmonary Interstitial Hyperplasia (Fibrosis)", "assay": "Effect of oral 5MP2P upon pulmonary interstitial hyperplasia in dogs", "type": "in vivo, Beagle dogs", "protocol": "The mean score for Group I (Control) was 2.11 + 0.31, and for Group IV, which received 5MP2P, 150 mg/kg per day orally in capsules, was 0.22 + 0.15."}, "Acute toxicity (LD50)": {"assay": "Acute toxicity (LD50)", "conditions": "in vivo", "from_the_text": "The acute toxicity of the ingredient in the medical composition of the present invention which exerts the anti-fibrotic activity is as shown in the table below."}, "[4]": {"test_system": "Pulmonary Interstitial Hyperplasia (Fibrosis)", "assay": "Effect of oral 5MP2P upon pulmonary interstitial hyperplasia in dogs", "type": "in vivo, Beagle dogs", "conditions": "for Hyperplasia Scores 0 (number of dogs): 0 = normal tissue; for Hyperplasia Scores 1 (number of dogs): 1 = minimal; for Hyperplasia Scores 2 (number of dogs): 2 = moderate; for Hyperplasia Scores 3 (number of dogs): 3 = severe; for Incidence of Normal Lung / Average Scores (hyperplasia): dogs; for Incidence of Normal Lung: control 0/9; for Average Scores (hyperplasia): score 0-3, control 2.11+0.31"}, "[5]": {"conditions": "300 mg/kg in the diet for three months, 19 animals"}, "[6]": {"conditions": "hamsters, Group III: asbestos by inhalation for 5 days, 5MP2P 500 MG/KG/day orally in the diet for two months, beginning two months after exposure"}}, "note": "Values joined by “and” are separate entries in the source; they are usually repeats but may differ in a detail not shown here. Equal entries are not always repeated. Marks after values point to notes of the source that are not given here.", "data": [{"smiles": "Cc1ccc(=O)n(-c2ccccc2)c1", "note": "[5MP2P, 5-Methyl-1-phenyl-2-(1H)-pyridone]", "values": [{"measurement": "Lung Connective Tissue Score 0, Total (number of animals)", "setting": "[1]; [5]", "result": 5}, {"measurement": "Lung Connective Tissue Score 1, Total (number of animals)", "setting": "[1]; [5]", "result": 11}, {"measurement": "Lung Connective Tissue Score 2, Total (number of animals)", "setting": "[1]; [5]", "result": 2}, {"measurement": "Lung Connective Tissue Score 3, Total (number of animals)", "setting": "[1]; [5]", "result": 1}, {"measurement": "Lung Connective Tissue Score, Mean", "setting": "[1]; Group IV, 300 mg/kg body weight daily in the diet for three months, score schedule 0-3, control mean 1.63, P<0.02, 300 mg/kg", "result": "0.95 ± 0.23 and 0.95"}, {"measurement": "recurrence of asbestos-induced fibrosis", "setting": "[2]; after 5MP2P had been discontinued for two months", "result": "did not recur"}, {"measurement": "lung cell-imbedded asbestos fibers", "setting": "[2]; electron microscope, confirmed by ashing of lung specimens and determining the asbestos content", "result": "had been removed"}, {"measurement": "Pulmonary Fibrosis Scores Lung Density, Average", "setting": "[2]; hamsters, Group III, 500 MG/KG/day in the diet for two months, asbestos without 5MP2P 2.53+0.23, no asbestos 1.00+0.05", "result": "1.17+0.10**"}, {"measurement": "Pulmonary Fibrosis Scores Electron Microscope, Average", "setting": "[2]; hamsters, Group III, 500 MG/KG/day in the diet for two months, asbestos without 5MP2P 2.75+0.25, no asbestos 0.25+0.25", "result": "0.25+0.25**"}, {"measurement": "Pulmonary Fibrosis Scores Light Microscope, Average", "setting": "[2]; hamsters, Group III, 500 MG/KG/day in the diet for two months, asbestos without 5MP2P 2.75+0.25, no asbestos 0.50+0.25", "result": "1.00+0.41**"}, {"measurement": "Pulmonary Fibrosis Scores Electron Microscope (individual animal)", "setting": "[2]; [6]", "result": "0 (3×) and 1"}, {"measurement": "Pulmonary Fibrosis Scores Light Microscope (individual animal)", "setting": "[2]; [6]", "result": "0 and 2 and 1 (2×)"}, {"measurement": "Pulmonary Fibrosis Scores Lung Density (individual animal)", "setting": "[2]; [6]", "result": "0.98 and 1.04 and 1.26 and 1.41"}, {"measurement": "pulmonary fibrosis induced with crysotile asbestos", "setting": "[2]; hamsters, oral 5MP2P", "result": "removed"}, {"measurement": "Hyperplasia Scores 0 (number of dogs)", "setting": "[3]; 150 MG/KG/day, 9 dogs, 0 = normal tissue", "result": 7}, {"measurement": "Hyperplasia Scores 1 (number of dogs)", "setting": "[3]; 150 MG/KG/day, 9 dogs, 1 = minimal", "result": 2}, {"measurement": "Incidence of Normal Lung", "setting": "[3]; dogs, 150 MG/KG/day oral, control 0/9", "result": "7/9"}, {"measurement": "LD50", "setting": "Acute toxicity (LD50); ip, Guinea pig", "result": "460 ± 28", "unit": "mg/kg"}, {"measurement": "LD50", "setting": "Acute toxicity (LD50); ip, Mouse", "result": "600 ± 43", "unit": "mg/kg"}, {"measurement": "LD50", "setting": "Acute toxicity (LD50); ip, Rat", "result": "430 ± 29", "unit": "mg/kg"}, {"measurement": "LD50", "setting": "Acute toxicity (LD50); iv, Cat", "result": 40, "unit": "mg/kg"}, {"measurement": "LD50", "setting": "Acute toxicity (LD50); iv, Dog", "result": 200, "unit": "mg/kg"}, {"measurement": "LD50", "setting": "Acute toxicity (LD50); iv, Monkey", "result": 100, "unit": "mg/kg"}, {"measurement": "LD50", "setting": "Acute toxicity (LD50); iv, Mouse", "result": "285 ± 5", "unit": "mg/kg"}, {"measurement": "LD50", "setting": "Acute toxicity (LD50); iv, Rabbit", "result": "280 ± 32", "unit": "mg/kg"}, {"measurement": "LD50", "setting": "Acute toxicity (LD50); po, Cat", "result": 500, "unit": "mg/kg"}, {"measurement": "LD50", "setting": "Acute toxicity (LD50); po, Dog", "result": 300, "unit": "mg/kg"}, {"measurement": "LD50", "setting": "Acute toxicity (LD50); po, Guinea pig", "result": "810 ± 25", "unit": "mg/kg"}, {"measurement": "LD50", "setting": "Acute toxicity (LD50); po, Mouse", "result": 998, "unit": "mg/kg"}, {"measurement": "LD50", "setting": "Acute toxicity (LD50); po, Rat female", "result": 2300, "unit": "mg/kg"}, {"measurement": "LD50", "setting": "Acute toxicity (LD50); po, Rat male", "result": 1300, "unit": "mg/kg"}, {"measurement": "Hyperplasia Scores 0 (number of dogs)", "setting": "[4]; 25 MG/KG/day, 6 dogs", "result": 1}, {"measurement": "Hyperplasia Scores 1 (number of dogs)", "setting": "[4]; 25 MG/KG/day, 6 dogs", "result": 1}, {"measurement": "Hyperplasia Scores 2 (number of dogs)", "setting": "[4]; 25 MG/KG/day, 6 dogs", "result": 4}, {"measurement": "Hyperplasia Scores 3 (number of dogs)", "setting": "[4]; 25 MG/KG/day, 6 dogs", "result": 0}, {"measurement": "Hyperplasia Scores 0 (number of dogs)", "setting": "[4]; 75 MG/KG/day, 8 dogs", "result": 2}, {"measurement": "Hyperplasia Scores 1 (number of dogs)", "setting": "[4]; 75 MG/KG/day, 8 dogs", "result": 2}, {"measurement": "Hyperplasia Scores 2 (number of dogs)", "setting": "[4]; 75 MG/KG/day, 8 dogs", "result": 3}, {"measurement": "Hyperplasia Scores 3 (number of dogs)", "setting": "[4]; 75 MG/KG/day, 8 dogs", "result": 1}, {"measurement": "Hyperplasia Scores 2 (number of dogs)", "setting": "[4]; 150 MG/KG/day, 9 dogs", "result": 0}, {"measurement": "Hyperplasia Scores 3 (number of dogs)", "setting": "[4]; 150 MG/KG/day, 9 dogs", "result": 0}, {"measurement": "Incidence of Normal Lung", "setting": "[4]; 25 MG/KG/day oral", "result": "1/6"}, {"measurement": "Incidence of Normal Lung", "setting": "[4]; 75 MG/KG/day oral", "result": "2/8"}, {"measurement": "Average Scores (hyperplasia)", "setting": "[4]; Group II, 25 MG/KG/day oral", "result": "1.50+0.34"}, {"measurement": "Average Scores (hyperplasia)", "setting": "[4]; Group III, 75 MG/KG/day oral", "result": "1.38+0.38"}]}]}
